Data set [1] concerns Caspase-3 enzyme. In words: Caspase-3 assay. It counts as cell-based, Human. The following applies: HaCaT, 0.1 μM. The method, then:
Cell lines: Human Keratinocytes (HaCaT); Test Item (TI): IS 181; Treatment regimen: Multiple additions (2)—48 hours; Concentration range: 100 μg/ml to 5000 μg/ml (Duplicate wells); Sera Condition: Medium containing 1% FBS. […] Cells were lysed and protein was estimated. The above lysates were processed further for Caspase-3 enzyme activity assay using colorimetric based method. Percentage induction of Caspase-3 enzyme activation with respect to untreated; Positive control: Anthralin. IS 181 led to induction of Caspase-3 enzyme activation in HaCaT cells at all the concentrations tested except at 100 μg/ml. […] (FIGS. 7A-7B)

In data set [2] the test system is Human Keratinocytes (HaCaT). The data set is described as follows: DNA fragmentation assay in HaCaT. The data set is classed as cell-based. The procedure:
Cells were lysed and fragmented DNA was precipitated using PEG/NaCl solution. The fragmented DNA was incubated with 0.2 μg/ml of Hoechst 33258 dye and fluorescence was read at 360 ex/460 em. End point: Percentage induction of DNA fragmentation with respect to untreated Positive control. Anthralin. IS 181 led to induction of DNA fragmentation in HaCaT cells at all the concentrations tested except at 100 μg/ml. […] The overall effect of IS 181 on induction of DNA fragmentation with respect to untreated in HaCaT cells ranged from −18.8% to 83.3%. (FIG. 8 and Table-6).

The test system of data set [3] is Human endothelial cells (EA.hy 926). In words: Inhibition of FBS stimulated endothelial cell proliferation (MTT). It counts as cell-based. The method, then: Cell line: Human endothelial cells (EA.hy 926); test item: IS 181: treatment regimen: multiple additions (3)-72 hours; concentration range: 1 6 g/ml to 5000 6 g/ml (triplicate wells); sera condition: medium containing 10% FBS. […] The cells were then subjected to complete serum starvation. The cells were retreated with 10% FBS to stimulate cellular proliferation. […] Inhibition of FBS stimulated cell proliferation was measured using MTT assay. End point: percentage inhibition of FBS stimulated cell proliferation. Positive controls: anthralin; paclitaxel.

For data set [4] the test system is unchanged. The data set is described as follows: DNA fragmentation in endothelial cells. The data set is classed as cell-based. The procedure: Cell lines: Human endothelial cells (EA.Hy 926); test item: IS 181; treatment regimen: multiple additions (2)—48 hours; concentration range: 100 μg/ml to 5000 μg/ml (Duplicate wells); sera condition: medium containing 1% FBS. […] Cells were lysed and fragmented DNA was precipitated using PEG/NaCl solution. The fragmented DNA was incubated with 0.2 μg/ml of Hoechst 33258 dye and fluorescence was read at 360 ex/460 em. End point: Percentage induction of DNA fragmentation with respect to untreated. Positive control: anthralin. IS 181 led to induction of DNA fragmentation in Ea.hy.926 cells at all the concentrations tested. […] The overall effect of IS 181 on induction of DNA fragmentation with respect to untreated in Ea.hy.926 cells ranged from 15.09% to 64.15% (FIGS. 10A-10B and Table-10).

Data set [5] in a line: In vitro combination Anthralin and IS 181 (MTT). The data set is classed as cell-based, Human. The following applies: human, HaCaT keratinocytes, read-out: percent inhibition of cell viability/cytotoxicity. The procedure: (§1) Percentage cytotoxicity was determined using MTT assay.
Data set [6] concerns Human Keratinocytes (HaCaT). The data set is described as follows: In vitro combination Anthralin and IS 181 (MTT). The data set is classed as cell-based. The following applies: Homo sapiens, 72 h, read-out: IC 50 value of Anthralin. The method, then:
as §1

Read-outs that look alike come from different tables or passages of the source.

The inhibition is the change of the read-out against control, counted positive when it falls. Turning to `O=C1c2c(O)cccc2Cc2cccc(O)c21` [Anthralin, reference compound], the “Percentage induction of caspase-3 enzyme activation with respect to untreated” value in data set [1] came out at 101.85. In addition, the “% induction of DNA fragmentation” value in data set [2] (0.1 μM) was determined as 60.42%; in data set [2] (0.5 μM), 168.75%; in data set [4] (EA.hy926, 0.1 μM) it was 3.77%; in data set [4] (EA.hy926, 0.5 μM), 13.21%. The “Absorbance (Mean ± SD) at 540 nm” value in data set [3] (EA.hy926, 0.01 μM) is given as 0.46 ± 0.025; in data set [3] (EA.hy926, 0.1 μM), 0.45 ± 0.018; in data set [3] (EA.hy926, 0.5 μM), 0.42 ± 0.013. Moreover, the inhibition at 0.01 µM in data set [3] (Homo sapiens, EA.hy 926, EA.hy926, 0.01 μM, read-out: ¾ Inhibition of FBS stimulated cell growth) is 7.21%. Also, the inhibition at 0.1 µM in data set [3] (Homo sapiens, EA.hy 926, EA.hy926, 0.1 μM, read-out: ¾ Inhibition of FBS stimulated cell growth) was found to be 14.6%. In data set [3] (Homo sapiens, EA.hy 926, EA.hy926, 0.5 μM, read-out: ¾ Inhibition of FBS stimulated cell growth), the inhibition at 0.5 µM is 20.4%. Also, the cytotoxicity at 72 h, 0.01 µM in data set [5] (Anthralin 0.01 μM alone) was determined as 0.75%. Besides, the cytotoxicity at 72 h, 0.05 µM in data set [5] (Anthralin 0.05 μM alone) was -2.45%. Further, in data set [5] (Anthralin 0.1 μM alone), the cytotoxicity at 72 h, 0.1 µM came out at 9.41%. Also, in data set [5] (Anthralin 0.5 μM alone), the cytotoxicity at 72 h, 0.5 µM turned out to be 41.3%. The cytotoxicity at 72 h, 1 µM in data set [5] (Anthralin 1 μM alone) amounted to 78.9%. Moreover, the cytotoxicity at 72 h, 5 µM in data set [5] (Anthralin 5 μM alone) came to 87.9%. For the same compound, the IC50 in data set [6] (IS 181 0 μg/ml) came to 558 nM; in data set [6] (with IS 181 10 μg/ml), 628 nM; in data set [6] (with IS 181 50 μg/ml), 584 nM; in data set [6] (with IS 181 100 μg/ml), 522 nM; in data set [6] (with IS 181 500 μg/ml), 97.3 nM; in data set [6] (with IS 181 1000 μg/ml) it was 27.1 nM. For the same compound, in data set [6] (with IS 181 2000 μg/ml), the IC50 amounted to 0.1 nM.
